Results published in patent US9670204B2, “Compounds and pharmaceutical compositions thereof for the treatment of inflammatory disorders” (Galapagos NV, priority 2013, dated 2017).

Columns and labels:
LPA 18:2 in human plasma = assay: Human whole blood (plasma) LPA assay; assay type: biochemical; details: 2 h at 37 C, LPA 18:2 by LC-MS/MS
Procedure: Blood is collected from healthy volunteers who gave informed consent into sodium heparin tubes by venipuncture, then gently inverted several times to prevent clotting. Tubes are centrifuged at 3000 rpm for 15 min at 4° C. then plasma is stored at −80° C. Compounds are diluted in DMSO in concentration dependent manner then 0.5 μL are dispensed into 96-well plate placed in ice. Plasma is defrosted on ice then 49.5 μL of plasma are added into the well containing 0.5 μL of compound (1% DMSO final). Plates are covered with a lid in polypropylene and incubated at +37° C., 5% CO2, for 2 h under gentle shaking (except controls which are stored at −20° C.).
At the end of the incubation, controls are defrosted in ice and transferred in the incubated plates for LC-MS/MS analysis with a non GLP-validated method. For the analysis, plasma proteins from a 10 μL incubated plates are precipitated with an excess of methanol containing the internal standard, LPA 17:0. After centrifugation, the corresponding supernatant is injected on a C18 column. Analytes are eluted out of the column under isocratic conditions. An API5500 QTRAP mass spectrometer (ABSciex™) is used for the detection of LPA 18:2. No calibration curve is prepared for LPA 18:2, however relative quantities are evaluated based on the peak area.

LPA 18:2 in rat plasma = assay: Rat whole blood (plasma) LPA assay; assay type: biochemical; details: 2 h at 37 C, LPA 18:2 by LC-MS/MS
Outline: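 Heparinised rat plasma spiked with compound (1% DMSO final), incubated 2 h at 37 °C, 5% CO2 with shaking; controls kept at −20 °C. After methanol precipitation with LPA 17:0 internal standard, LPA 18:2 measured by LC-MS/MS (C18, isocratic), relative quantities from peak area without calibration.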

[1] = test system: TS-induced pulmonary inflammation, cells in BALF; assay: Tobacco smoke (TS) model, lungs inflammatory cells recruitment; assay type: in vivo, female C57BL/6J mice; details: days 6 to 11, TS-exposed mice
Procedure: The aim of this experiment is to evaluate the efficacy and potency of a test compound administered p.o., once or twice daily on days 6 to 11, vs reference compounds, on pulmonary inflammation induced by 11 days of TS-exposure in female C57BL/6J mice, by assessing the effect of a test compound on the tobacco smoke induced recruitment of inflammatory cells to the lungs.
The test compounds are formulated in PEG200/0.5% methylcellulose (25/75, v/v) and are given at a dose volume of 10 mL/kg. Roflumilast and Dexamethasone are included as positive […] control, respectively. Each treatment group consists of 10 mice.
A first group of mice is subjected to daily TS-exposure for 5 consecutive days and sacrificed on the day 6, 24 h after the final TS-exposure.
A second group is exposed to air for 5 consecutive days (sham exposure) and sacrificed on the day 6, 24 h after the final air-exposure.
Compound and reference-treated groups are subjected to daily TS-exposure for 11 consecutive days and sacrificed on the day 12, 24 h after the final TS-exposure. Mice are dosed p.o. on days 6 to 11, twice daily, 1 h prior to and 6 h after each TS-exposure, with either vehicle, or the test compound at 3, 5, 10 or 30 mg/kg. Another group is dosed p.o. on days 6 to 11, once daily, 1 h prior to each TS-exposure, with either vehicle, or the test compound at 10 mg/kg.
An additional group is dosed p.o., once daily, on days 6 to 11, with roflumilast at 5 mg/kg, 1 h prior to each TS-exposure. Dexamethasone is dosed p.o., twice daily, on days 6 to 11, at 0.3 mg/kg, 1 h prior to and 6 h after each TS-exposure.
For each mouse, a BAL is performed using 0.4 mL of PBS. The lavage fluid is centrifuged, the supernatant removed and the resulting cell pellet re-suspended for total cell counts and cytospin slide preparation. […]
The lungs are dissected out and the left lobes are removed, snap-frozen and stored at −80° C. […] Cell data are presented as individual data points for each animal and the mean value calculated for each group. […]
Percentage inhibitions for the cell data are calculated using the formula below: […]

hENPP2 [2] = molecular target: T1, hENPP2 (UniProtKB/SwissProt Q13822) (Homo sapiens (Human), UniProt Q13822); assay: hENPP2 biochemical assay, LPC as substrate; details: LPC (palmitoyl 16:0) as substrate
Outline: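 Human ENPP2 in 50 mM Tris-HCl pH 8.5, 500 mM NaCl, 5 mM KCl, 10 mM CaCl2, 0.1% fatty-acid-free BSA, reacted 30 min at 37 °C with LPC 16:0 (150 µM solution added 1:1). Released choline measured via choline oxidase/peroxidase/TOOS/4-aminoantipyrine quinoneimine dye at 555 nm; IC50 reported.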

hENPP2 [3] = molecular target: T1, hENPP2; assay: fluorescent hENPP2 biochemical assay, FS-3 as substrate; details: read-out: FS3-IC50
Outline: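 IC50 values come from fluorescence gained as FS-3 is hydrolysed (ex 485, em 520 nm). The reaction, started by adding 0.75 μM FS-3 solution, runs 30 min at 30° C after a 30 min room-temperature preincubation of compound with enzyme. Buffer: Tris-HCl pH 8.0 with NaCl, KCl, MgCl2, CaCl2 and 0.1% BSA.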

| IC50 (LPA 18:2 in human plasma) [nM] | IC50 (LPA 18:2 in rat plasma) [nM] | IC50 (hENPP2 [2]) [nM] | IC50 (hENPP2 [3]) [nM] | SMILES | number of cells recovered in the BALF, in particular macrophage cells, epithelial cells, and neutrophils ([1]; 3 mg/kg twice daily p.o.) | number of cells recovered in the BALF, in particular macrophage cells, epithelial cells, and neutrophils ([1]; 10 mg/kg twice daily p.o.) |
| --- | --- | --- | --- | --- | --- | --- |
| 100 to 500 | 500 to 1000 | – | – | CCc1nc2c(C)cc(N3CCN(CC(=O)N4CC(O)C4)CC3)cn2c1N(C)c1nc(-c2ccc(F)cc2)c(C#N)s1 [Compound 2, 2-((2-ethyl-6-(4-(2-(3-hydroxyazetidin-1-yl)-2-oxoethyl)piperazin-1-yl)-8-methylimidazo[1,2-a]pyridin-3-yl)(methyl)amino)-4-(4-fluorophenyl) thiazole-5-carbonitrile] | significantly inhibited | significantly inhibited |
| 100 to 500 | 0.01 to 100 | 0.01 to 100 | 0.01 to 100 | CCc1nc2c(F)cc(N3CCN(CC(=O)N4CC(O)C4)CC3)cn2c1N(C)c1nc(-c2ccc(F)cc2)c(C#N)s1 [Compound 12, 2-((2-ethyl-8-fluoro-6-(4-(2-(3-hydroxyazetidin-1-yl)-2-oxoethyl)piperazin-1-yl)imidazo[1,2-a]pyridin-3-yl)(methyl)amino)-4-(4-fluorophenyl)thiazole-5-carbonitrile] | – | significantly inhibited |
